Data: patent US9193673B2, “Derivatives of mesalazine, process of their preparation and their use in the treatment of intestinal inflammatory diseases” (SOFAR SPA, priority 2010, dated 2015)
Several values for one entry are separate records, joined by “and”; a condition that tells them apart may be missing. Equal entries are not always repeated. Entries after “also recorded” stand apart in the source; their conditions may differ. Where two headings read alike, the source gives them in different places.

Experiments:
[1] = Stability in rat plasma (hydrolysis by plasma esterases); assay type: in vitro ADME
Description: Such study is conducted with the aim of evaluating possible hydrolysis of the compound (IV) by the plasma esterases. The percentage of hydrolysis of the compound (IV) is compared to that of known reference standards.

[2] = In vivo pharmacokinetic in the rat after i.v. and p.o. administration of compound (IV)
[3] = Stability in murine intestinal homogenate; assay type: in vitro ADME, rat
Description: Such study is conducted with the aim of evaluating the stability of the compound (IV) in intestinal homogenate.
The stability of the compound (IV) is compared to that of known reference standards.

[4] = compound (IV) i.v. 5 mg/kg, rat, individual rats
[5] = compound (IV) i.v. 5 mg/kg, rat, individual rats, 5 mg/kg
[6] = compound (IV) oral gavage 50 mg/kg, rat, individual rats, 50 mg/kg

CCCC(=O)Oc1ccc(N)cc1C(=O)O.Cl [Compound (IV), 5-amino-2-(butyryloxy)benzoic acid]
% Residue at 60 min ([1]; Rat plasma, 60 min): 8.5 ± 2.0% | Hydrolysis in plasma ([1]; murine plasma): high hydrolysis percentage | % hydrolysed ([1]; murine plasma, after 1 hour of incubation): 91.5% | Pharmacokinetic parameters ([2]; administered p.o. and i.v. in rats): good pharmacokinetic parameters | Metabolism in vivo ([2]; after i.v. and p.o. treatment, rat): metabolised quickly | Tlast [2, 4]: 1440 min | Tmax [2, 4]: 2 min | AUCinf [2, 5]: 18700 ng·min/mL and 22424 ng·min/mL | AUClast [2, 5]: 17271 ng·min/mL and 21300 ng·min/mL | Cl [2, 5]: 229.9 mL/min/kg and 191.8 mL/min/kg | Clast [2, 5]: 1.8 ng/mL and 1.7 ng/mL | Cmax [2, 5]: 529 ng/mL and 851.2 ng/mL | MRT [2, 5]: 209 min and 175 min | T½ [2, 5]: 547.1 min and 451.8 min | Vdss [2, 5]: 115.3 L/kg and 51.9 L/kg | Tlast Mean ([2]; compound (IV) i.v. 5 mg/kg, rat, mean): 1440 min | AUCinf [2, 6]: 3985 ng·min/mL and 5954 ng·min/mL | AUClast [2, 6]: 3943 ng·min/mL and 5925 ng·min/mL | Clast [2, 6]: 2.9 ng/mL and 0.8 ng/mL and 1.3 ng/mL | Cmax [2, 6]: 104 ng/mL and 174 ng/mL | MRTlast [2, 6]: 48 min and 32 min and 23 min | Tlast [2, 6]: 240 min (2×) and 120 min | Tmax [2, 6]: 30 min and 15 min and 5 min | Tlast Mean ([2]; compound (IV) oral gavage 50 mg/kg, rat, mean): 200 min | bioavailability ([2]; plasma, oral gavage 50 mg/kg vs i.v. 5 mg/kg, rat, read-out: Mean Fpo 0_inf (%) (mean p.o. bioavailability)): 2.4% | AUC(0-inf) ([2]; rat, plasma, iv, 5 mg/kg, compound (IV) i.v. 5 mg/kg, rat, individual rats, read-out: AUCinf (converted)): 341 ng·h/mL | AUC(0-t) ([2]; rat, plasma, iv, 5 mg/kg, compound (IV) i.v. 5 mg/kg, rat, individual rats, read-out: AUClast (converted)): 296 ng·h/mL | clearance ([2]; rat, plasma, iv, 5 mg/kg, compound (IV) i.v. 5 mg/kg, rat, individual rats, read-out: Cl): 210 mL/min/kg | concentration at 1440 min ([2]; rat, plasma, iv, 5 mg/kg, compound (IV) i.v. 5 mg/kg, rat, individual rats, read-out: Clast): 2.9 ng/mL | Cmax ([2]; rat, plasma, iv, 5 mg/kg, compound (IV) i.v. 5 mg/kg, rat, individual rats, read-out: Cmax): 598 ng/mL | MRT ([2]; rat, plasma, iv, 5 mg/kg, compound (IV) i.v. 5 mg/kg, rat, individual rats, read-out: MRT (converted)): 273 min | Tmax ([2]; rat, plasma, iv, 5 mg/kg, compound (IV) i.v. 5 mg/kg, rat, individual rats, read-out: Tmax (converted)): 2 min | half-life ([2]; rat, plasma, iv, 5 mg/kg, compound (IV) i.v. 5 mg/kg, rat, individual rats, read-out: T½): 638 min | AUC(0-inf) ([2]; rat, plasma, iv, 5 mg/kg, compound (IV) i.v. 5 mg/kg, rat, mean, read-out: AUCinf Mean (converted)): 342 ng·h/mL | AUC(0-t) ([2]; rat, plasma, iv, 5 mg/kg, compound (IV) i.v. 5 mg/kg, rat, mean, read-out: AUClast Mean (converted)): 313 ng·h/mL | clearance ([2]; rat, plasma, iv, 5 mg/kg, compound (IV) i.v. 5 mg/kg, rat, mean, read-out: Cl Mean): 211 mL/min/kg | concentration at 1440 min ([2]; rat, plasma, iv, 5 mg/kg, compound (IV) i.v. 5 mg/kg, rat, mean, read-out: Clast Mean): 2.1 ng/mL | Cmax ([2]; rat, plasma, iv, 5 mg/kg, compound (IV) i.v. 5 mg/kg, rat, mean, read-out: Cmax Mean): 659 ng/mL | MRT ([2]; rat, plasma, iv, 5 mg/kg, compound (IV) i.v. 5 mg/kg, rat, mean, read-out: MRT Mean (converted)): 219 min | Tmax ([2]; rat, plasma, iv, 5 mg/kg, compound (IV) i.v. 5 mg/kg, rat, mean, read-out: Tmax Mean (converted)): 2 min | half-life ([2]; rat, plasma, iv, 5 mg/kg, compound (IV) i.v. 5 mg/kg, rat, mean, read-out: T½ Mean): 546 min | Vd ([2]; rat, plasma, iv, 5 mg/kg, compound (IV) i.v. 5 mg/kg, rat, mean, read-out: Vdss Mean): 83.5 L/kg | concentration at 200 min ([2]; rat, plasma, oral, 50 mg/kg, compound (IV) oral gavage 50 mg/kg, rat, mean, read-out: Clast Mean): 2.8 ng/mL | concentration at 4 h ([2]; rat, plasma, po, 50 mg/kg, after p.o. administration, rat, 4 hours): 1 ng/mL | Cmax ([2]; rat, plasma, po, 50 mg/kg, after p.o. administration, rat, read-out: Cmax): 95 ng/mL | AUC(0-inf) ([2]; rat, plasma, po, 50 mg/kg, compound (IV) oral gavage 50 mg/kg, rat, individual rats, read-out: AUCinf (converted)): 76.5 ng·h/mL | AUC(0-t) ([2]; rat, plasma, po, 50 mg/kg, compound (IV) oral gavage 50 mg/kg, rat, individual rats, read-out: AUClast (converted)): 67.4 ng·h/mL | Cmax ([2]; rat, plasma, po, 50 mg/kg, compound (IV) oral gavage 50 mg/kg, rat, individual rats, read-out: Cmax): 89 ng/mL | AUC(0-inf) ([2]; rat, plasma, po, 50 mg/kg, compound (IV) oral gavage 50 mg/kg, rat, mean, read-out: AUCinf Mean (converted)): 80.7 ng·h/mL | AUC(0-t) ([2]; rat, plasma, po, 50 mg/kg, compound (IV) oral gavage 50 mg/kg, rat, mean, read-out: AUClast Mean (converted)): 77.3 ng·h/mL | Cmax ([2]; rat, plasma, po, 50 mg/kg, compound (IV) oral gavage 50 mg/kg, rat, mean, read-out: Cmax Mean): 122 ng/mL | MRT last ([2]; rat, plasma, po, 50 mg/kg, compound (IV) oral gavage 50 mg/kg, rat, mean, read-out: MRTlast Mean (converted)): 35 min | Tmax ([2]; rat, plasma, po, 50 mg/kg, compound (IV) oral gavage 50 mg/kg, rat, mean, read-out: Tmax Mean (converted)): 16.7 min | Stability in the rat intestine ([3]; rat intestinal homogenate): very unstable in the rat intestine; also recorded: quickly metabolised in the rat intestine | Residue percentage ([3]; rat intestinal homogenate, 25 μM, 30 min): 9.8 ± 1.1% | Residue percentage ([3]; rat intestinal homogenate, 25 μM, 1 hr): 12.2 ± 1.6% | Residue percentage ([3]; rat intestinal homogenate, 25 μM, 2 hrs): 10.1 ± 4.4% | Residue percentage ([3]; rat intestinal homogenate, 25 μM, 4 hrs): 24.5 ± 1.3(*) % | Residue percentage ([3]; rat intestinal homogenate, 50 μM, 30 min): 5.6 ± 0.6% | Residue percentage ([3]; rat intestinal homogenate, 50 μM, 1 hr): 4.4 ± 1.1% | Residue percentage ([3]; rat intestinal homogenate, 50 μM, 2 hrs): 7.3 ± 1.0% | Residue percentage ([3]; rat intestinal homogenate, 50 μM, 4 hrs): 5.5 ± 1.1% | Hydrolysis ([3]; tested at two concentrations (25 and 50 μM)): 90-95%
